The text below walks through data of US8394825B2, “Compound” (Sterix Limited, priority 2007, dated 2013).

The melting point is the temperature of the solid-liquid transition.

In turn, `COc1cc2c(cc1O[Si](C(C)C)(C(C)C)C(C)C)CCN(Cc1cccc([N+](=O)[O-])c1)C2` gave a melting point of 57.3 to 58.6 °C.

`COc1cc2c(cc1OCc1ccccc1)CCN(Cc1cccc(O[Si](C(C)C)(C(C)C)C(C)C)c1)C2` yielded a melting point of 78 to 79 °C.

`COc1cc2c(cc1OCc1ccccc1)CCN(Cc1ccc(C#N)cc1)C2` [29A, 6-Benzyloxy-2-(4-cyanobenzyl)-7-methoxy-1,2,3,4-tetrahydroisoquinoline] returned a melting point of 161 to 162 °C.

On to `COC(=O)c1cccc(CN2CCc3cc(O)c(OC)cc3C2)c1` [70A, 2-(3-(Methoxycarbonyl)benzyl)-6-hydroxy-7-methoxy-1,2,3,4-tetrahydroisoquinoline], for which the melting point lay in the range of 156 to 158 °C.

`COC(=O)c1ccccc1S(=O)(=O)N1CCc2cc(O)c(OC)cc2C1` [186A, 7-Methoxy-2-(2-(methoxycarbonyl)benzenesulfonyl)-6-hydroxy-1,2,3,4-tetrahydroisoquinoline]: the melting point was 134 to 138 °C.

Consider `COc1cc2c(cc1O)CCN(S(=O)(=O)c1cccc(CC(=O)O)c1)C2=O` [203A, 6-Hydroxy-7-methoxy-2-(3-carboxymethyl-benzenesulfonyl)-3,4-dihydro-2H-isoquinolin-1-one], for which the melting point was in the range of 236 to 239 °C.

`Oc1ccc2c(c1)CCN(Cc1ccc3c(c1)OCO3)C2` [B2, 2-Piperonyl-1,2,3,4-tetrahydroisoquinolin-6-ol]: the melting point was 63 to 87 °C.

With `CCOc1cccc(C(=O)N2CCc3cc(O)ccc3C2)c1` [B4, 2-(3-Ethoxybenzoyl)-1,2,3,4-tetrahydroisoquinolin-6-ol], the melting point was in the range of 150 to 151 °C.

Molecule `COc1cc(CC(=O)N2CCc3cc(O)ccc3C2)cc(OC)c1OC` [B5, 2-(3,4,5-Trimethoxyphenylacetyl)-1,2,3,4-tetrahydroisoquinolin-6-ol] displayed a melting point of 37 to 53 °C.

`CCOc1ccc(C(=O)N2CCc3cc(O)ccc3C2)cc1OCC` [B6, 2-(3,4-Diethoxybenzoyl)-1,2,3,4-tetrahydroisoquinolin-6-ol] registered a melting point of 149 to 160 °C.

On to `COc1ccc(OC)c(C(=O)N2CCc3cc(O)ccc3C2)c1` [B7, 2-(2,5-Dimethoxybenzoyl)-1,2,3,4-tetrahydroisoquinolin-6-ol], for which the melting point was in the range of 61 to 86 °C.

Molecule `COc1ccc(C(=O)N2CCc3cc(O)ccc3C2)c(OC)c1` [B8, 2-(2,4-Dimethoxybenzoyl)-1,2,3,4-tetrahydroisoquinolin-6-ol] registered a melting point of 62 to 87 °C.

Regarding `COc1cccc(C(=O)N2CCc3cc(O)ccc3C2)c1OC` [B9, 2-(2,3-Dimethoxybenzoyl)-1,2,3,4-tetrahydroisoquinolin-6-ol], the melting point is 167 to 172 °C.

`COc1ccc(C(=O)N2CCc3cc(O)ccc3C2)cc1OC` [B10, 2-(3,4-Dimethoxybenzoyl)-1,2,3,4-tetrahydroisoquinolin-6-ol] gave a melting point of 58 to 77 °C.

Molecule `COc1cc(OC)c(C(=O)N2CCc3cc(O)ccc3C2)cc1OC` [B11, 2-(2,4,5-Trimethoxybenzoyl)-1,2,3,4-tetrahydroisoquinolin-6-ol] returned a melting point of 180 to 188 °C.

In turn, `CCOc1cc(C(=O)N2CCc3cc(O)ccc3C2)cc(OCC)c1OCC` [B14, 2-(3,4,5-Triethoxybenzoyl)-1,2,3,4-tetrahydroisoquinolin-6-ol] gave a melting point of 158 °C.

`COc1ccccc1CN1CCc2cc(O)ccc2C1` [B16, 2-(2-Methoxybenzyl)-1,2,3,4-tetrahydroisoquinolin-6-ol] yielded a melting point of 148 to 155 °C.

Molecule `COc1ccc(CN2CCc3cc(O)ccc3C2)cc1` [B17, 2-(4-methoxybenzyl)-1,2,3,4-tetrahydroisoquinolin-6-ol] showed a melting point of 158 to 160 °C.

On to `CCOc1cccc(CN2CCc3cc(O)ccc3C2)c1` [B18, 2-(3-Ethoxybenzyl)-1,2,3,4-tetrahydroisoquinolin-6-ol], for which the melting point lay within 120 to 121 °C.

As to `COc1ccc(OC)c(CN2CCc3cc(O)ccc3C2)c1` [B19, 2-(2,5-Dimethoxybenzyl)-1,2,3,4-tetrahydroisoquinolin-6-ol], the melting point was 178 to 192 °C.

`COc1cc(CN2CCc3cc(O)ccc3C2)cc(OC)c1` [B20, 2-(3,5-Dimethoxybenzyl)-1,2,3,4-tetrahydroisoquinolin-6-ol] returned a melting point of 189 to 195 °C.

The molecule `COc1cccc(CN2CCc3cc(O)ccc3C2)c1OC` [B21, 2-(2,3-Dimethoxybenzyl)-1,2,3,4-tetrahydroisoquinolin-6-ol] came in with a melting point of 111 to 115 °C.

`CCOc1ccc(CN2CCc3cc(O)ccc3C2)cc1OCC` [B22, 2-(3,4-Diethoxybenzyl)-1,2,3,4-tetrahydroisoquinolin-6-ol] returned a melting point of 150 to 154 °C.

Molecule `COc1ccc(CN2CCc3cc(O)ccc3C2)cc1OC` [B23, 2-(3,4-Dimethoxybenzyl)-1,2,3,4-tetrahydroisoquinolin-6-ol] yielded a melting point of 119 to 122 °C.

`Oc1ccc2c(c1)CCN(Cc1ccc3c(c1)OCO3)C2` [B24, 2-(Benzo[d][1,3]dioxol-5-ylmethyl)-1,2,3,4-tetrahydroisoquinolin-6-ol] came in with a melting point of 169 to 172 °C.

Regarding `COc1ccc(CN2CCc3cc(O)ccc3C2)c(OC)c1` [B25, 2-(2,4-Dimethoxybenzyl)-1,2,3,4-tetrahydroisoquinolin-6-ol], the melting point lay within 149 to 152 °C.

For `COc1cc(OC)c(OC)cc1CN1CCc2cc(O)ccc2C1` [B26, 2-(2,4,5-Trimethoxybenzyl)-1,2,3,4-tetrahydroisoquinolin-6-ol], the melting point lay within 188 to 191 °C.

Molecule `CCOc1cc(CN2CCc3cc(O)ccc3C2)cc(OCC)c1OCC` [B27, 2-(3,4,5-triethoxybenzyl)-1,2,3,4-tetrahydroisoquinolin-6-ol] displayed a melting point of 140 to 142 °C.

Molecule `COc1cc(O)c(CN2CCc3cc(O)ccc3C2)c(OC)c1` [B28, 2-(2-Hydroxy-4,6-dimethoxybenzyl)-1,2,3,4-tetrahydroisoquinolin-6-ol] had a melting point of 109 to 112 °C.

Molecule `COc1cc(CCN2CCc3cc(O)ccc3C2)cc(OC)c1OC` [B29, 2-(3,4,5-Trimethoxyphenethyl)-1,2,3,4-tetrahydroisoquinolin-6-ol] registered a melting point of 180 to 186 °C.

Molecule `COc1cc(OC)c(C(=O)N2CCc3cc(OCc4ccccc4)c(OC)cc3C2)c(OC)c1` [F1, 6-Benzyloxy-7-methoxy-2-(2,4,6-trimethoxybenzoyl)-1,2,3,4-tetrahydroisoquinoline] came in with a melting point of 70 to 72 °C.

Take `COc1cc(OC)c(CN2CCc3cc(OCc4ccccc4)c(OC)cc3C2)c(OC)c1` [F2, 6-Benzyloxy-7-methoxy-2-(2,4,6-trimethoxybenzyl)-1,2,3,4-tetrahydroisoquinoline]: the melting point lay in the range of 129 to 131 °C.

`COc1cc(OC)c(CN2CCc3cc(O)c(OC)cc3C2)c(OC)c1` [F3, 7-Methoxy-2-(2,4,6-trimethoxybenzyl)-1,2,3,4-tetrahydroisoquinolin-6-ol] displayed a melting point of 150 to 151 °C.

As to `COc1cc2c(cc1OCc1ccccc1)CCN(Cc1cc(F)cc(F)c1)C2` [F5, 6-Benzyloxy-2-(3,5-difluorobenzyl)-7-methoxy-1,2,3,4-tetrahydroisoquinoline], the melting point was in the range of 116 to 117 °C.

Take `COc1cc2c(cc1O)CCN(Cc1cc(F)cc(F)c1)C2` [F6, 2-(3,5-Difluorobenzyl)-7-methoxy-1,2,3,4-tetrahydroisoquinolin-6-ol]: the melting point was in the range of 110 to 111 °C.

`COc1cccc(CN2Cc3cc(OC)c(OCc4ccccc4)cc3C(O)C2)c1` (stereo not shown) [F17, 6-Benzyloxy-7-methoxy-2-(3-methoxybenzyl)-1,2,3,4-tetrahydroisoquinolin-4-ol]: the melting point lay in the range of 115 to 116 °C.

`COc1ccccc1CN1Cc2cc(OC)c(OCc3ccccc3)cc2C(OC)C1` (stereo not shown) [F19, 6-Benzyloxy-4,7-dimethoxy-2-(2-methoxybenzyl)-1,2,3,4-tetrahydroisoquinoline] yielded a melting point of 101 to 102 °C.

Regarding `COc1cccc(CN2Cc3cc(OC)c(OCc4ccccc4)cc3C(OC)C2)c1` (stereo not shown) [F20, 6-Benzyloxy-4,7-dimethoxy-2-(3-methoxybenzyl)-1,2,3,4-tetrahydroisoquinoline], the melting point was 96 to 97 °C.

`COc1cc2c(cc1OCc1ccccc1)C(OC)CN(Cc1cc(OC)c(OC)c(OC)c1)C2` (stereo not shown) [F22, 6-Benzyloxy-4,7-dimethoxy-2-(3,4,5-trimethoxybenzyl)-1,2,3,4-tetrahydroisoquinoline] returned a melting point of 89 to 90 °C.

Turning to `CCOC1CN(Cc2ccc(OC)cc2)Cc2cc(OC)c(OCc3ccccc3)cc21` (stereo not shown) [F25, 6-Benzyloxy-4-ethoxy-7-methoxy-2-(4-methoxybenzyl)-1,2,3,4-tetrahydroisoquinoline], the melting point lay within 84 to 85 °C.

For the molecule `CCOC1CN(Cc2cc(OC)c(OC)c(OC)c2)Cc2cc(OC)c(OCc3ccccc3)cc21` (stereo not shown) [F26, 6-Benzyloxy-4-ethoxy-7-methoxy-2-(3,4,5-trimethoxybenzyl)-1,2,3,4-tetrahydro-isoquinoline], the melting point was in the range of 132 to 133 °C.

Turning to `COc1cccc(CN2Cc3cc(OC)c(O)cc3C(O)C2)c1` (stereo not shown) [F28, 7-Methoxy-2-(3-methoxybenzyl)-1,2,3,4-tetrahydroisoquinoline-4,6-diol], the melting point fell in the range of 137 to 138 °C.

`COc1cc2c(cc1O)C(O)CN(Cc1cc(OC)c(OC)c(OC)c1)C2` (stereo not shown) [F29, 7-Methoxy-2-(3,4,5-trimethoxybenzyl)-1,2,3,4-tetrahydroisoquinoline-4,6-diol] came in with a melting point of 62 to 63 °C.

Take `COc1cc2c(cc1O)C(OC)CN(Cc1ccccc1OC)C2` (stereo not shown) [F30, 4,7-Dimethoxy-2-(2-methoxybenzyl)-1,2,3,4-tetrahydro-isoquinolin-6-ol]: the melting point is 45 to 47 °C.

In the case of `COc1cccc(CN2Cc3cc(OC)c(O)cc3C(OC)C2)c1` (stereo not shown) [F31, 4,7-Dimethoxy-2-(3-methoxybenzyl)-1,2,3,4-tetrahydro-isoquinolin-6-ol], the melting point was in the range of 133 to 134 °C.

In turn, `COc1ccc(CN2Cc3cc(OC)c(O)cc3C(OC)C2)cc1` (stereo not shown) [F32, 4,7-Dimethoxy-2-(4-methoxybenzyl)-1,2,3,4-tetrahydro-isoquinolin-6-ol] displayed a melting point of 84 to 85 °C.
